Laboratory results from paper PMC9343874, “Comparative Pharmacokinetics of Cinobufacini Capsule and Injection by UPLC-MS/MS” (Frontiers in Pharmacology, 2022).
Where two headings read alike, the source gives them in different places.

How the values were obtained:
[1] = Pharmacokinetic study in rats after oral administration of cinobufacini capsule (UPLC-MS/MS of plasma); format: in vivo, rat; settings: for AUC(0-inf) / AUC(0-t) / Cmax / Tmax / CL/F / MRT last / MRT inf / half-life / Vd/F: male, Sprague-Dawley, in vivo, rat plasma, mean ± SD, n = 6; for CL/F: read-out: CLz/F (converted); for MRT last: read-out: MRT0-t; for MRT inf: read-out: MRT0-∞; for half-life: read-out: T1/2z (converted); for Vd/F: read-out: Vz/F
Experimental: Male Sprague–Dawley rats (weighing 200–220 g) of SPF grade were offered by Sippr/BK laboratory Animal, Corp., Ltd. (Shanghai, China) and fed in the Laboratory Animal Center of the Shanghai University of Traditional Chinese Medicine. All the rats were kept under environmentally controlled conditions with constant temperature (22–24°C) and humidity (60–65%). The animal experiment program in the present research was approved by the Animal Committee of the Shanghai University of Traditional Chinese Medicine (PZSHUTCM210618012).
An Agilent 1290 liquid chromatographic system includes a G4220A quaternary pump, a G1326C column incubator, a G4226A automatic sampler, and a G1330B degasser. The column temperature was set to 35°C. A measure of 5 µL of samples were separated in an Agilent SB-C18 column (2.1 mm ×50 mm, 1.8 μm) and eluted at 0.3 ml/min, followed by gradient elution with water (0.1% V/V formic acid) (A) and acetonitrile (B) (0–1 min, 20%–20% B; 1–3.5 min, 20%–80% B; 4–4.1 min, 80%-20% B; 4.1–6 min, 20% B). The total run time was 6 minutes.
An Agilent 1290 Infinity series UPLC system was combined with an Agilent 6460 series triple quadrupole mass spectrometer (Agilent Technologies, Santa Clara, CA, United States) to quantify all 13 analytes in an ESI-positive ionization mode. Quantitative analysis was performed in an MRM mode. The mass spectrum conditions were as follows: capillary voltage, 4000V; drying gas (N2), gas flow rate: 10 L/min; sprayer, 30 psi; gas temperature 350°C; The delta EMV (+) 200 V; collision gas (N2); dwell time, 25 ms. Agilent’s MassHunter Workstation software was used for data collection, peak area calculation, and quantitative analysis.
A measure of 50 µL of the plasma sample was mixed with 10 µL of the internal standard solution (345 ng/ml) in a 1.5-ml centrifuge tube and vortexed for 5 min. The samples were extracted by 500 µL of ethyl acetate for 5 min and centrifuged at 4°C for 10 min (18000 rpm). All the supernatants were collected into another 1.5-ml centrifuge tube, dried under a gentle stream of nitrogen at 37°C, and then added with 50 µL of 80% methanol for resolution. The resolution samples were centrifuged at 4°C for 10 min (18000 rpm), and 5 µL supernatant was extracted and injected for analysis.
Twenty-four male Sprague–Dawley rats (weigh 200–220 g) were divided into four groups with six rats in each group randomly, including three capsule groups at three different doses and one injection group. In the instructions for cinobufacini capsule and injection, the clinical dosage for adults is 2 g per 70 kg orally and 20 ml per 70 kg intravenously, converting to rat doses of 180 mg/kg and 1.8 ml/kg, respectively.
In the pre-experiments, we compared cinobufacini capsule of 180 mg/kg (one-time clinical dose) and 900 mg/kg (five times of clinical dose) and Cinobufacini injection of 1.8 ml/kg, but concentrations of some compounds in plasma were too low and difficult to be quantified. […] The experimental rats were led to fast the night and were free to get access to water for 12 h before the pharmacokinetic study. After administration, blood samples (approximately 150 μL) of rats were collected via retro-orbital sinus into heparinized centrifuge tubes at 0.05, 0.083, 0.25, 0.5, 0.75, 1, 2, 4, 6, 8, and 10 h. After centrifugation at 5,000 rpm for 10 min, the plasma was transferred to 1.5-ml polypropylene tubes and stored at −80°C until UPLC-MS/MS analysis.
GraphPad Prism software (version 8.0.2) was used to draw the mean plasma concentration–time curves of all analytes. The pharmacokinetic parameters were calculated by DAS 3.2.8 software. Meanwhile, the pharmacokinetic data on rats were presented as mean ± standard deviation (SD). Differences of pharmacokinetic parameters between groups were analyzed by the t-test using SPSS software (version 26.0). Differences were considered significant statistically when the p-values were <0.05 and very significant statistically when the p-values were <0.01.

[2] = Stability of analytes in rat plasma QC samples under storage conditions; format: physicochemical; settings: n = 6; for Stability during 24 h at 4°C, RE: post-treatment storage in autosampler; for −80°C for 30 days, RE / Three freeze–thaw cycles, RE: rat plasma; for −80°C for 30 days, RE: long-term; for Three freeze–thaw cycles, RE: −80°C to room temperature
Experimental: The stability of QC samples in six replicates at three concentrations (low, medium, and high levels) was analyzed under different storage conditions: the post-treatment stability was analyzed after storage in an autosampler (4°C) for 24 h. Freeze–thaw stability was investigated after three freeze–thaw cycles (−80°C to room temperature as one cycle). Long-term stability was assessed by analyzing QC samples kept at −80°C for 30 days. The concentrations of the analytes in the plasma samples and the QC samples were calculated by the calibration standard curve prepared each day. The stabilities of analytes were acceptable when the accuracy (RE, %) and precision (RSD, %) of all QC samples in all storage conditions were within ±15% compared to nominal concentrations.

[3] = oral cinobufacini capsule 0.9 g/kg (low)
[4] = oral cinobufacini capsule 1.8 g/kg (medium)
[5] = oral cinobufacini capsule 3.6 g/kg (high)
[6] = high QC level (249.58–250.28 ng/ml)
[7] = medium QC level (49.92–50.06 ng/ml)

| Structure (SMILES) | AUC(0-inf) [1, 3] [ng·h/mL] | AUC(0-t) [1, 3] [ng·h/mL] | Cmax [1, 3] [ng/mL] | Tmax [1, 3] [min] | CL/F [1, 3] [mL/min/kg] | MRT last [1, 3] [h] | MRT inf [1, 3] [h] | half-life [1, 3] [min] | Vd/F [1, 3] [L/kg] | AUC(0-inf) [1, 4] [ng·h/mL] | AUC(0-t) [1, 4] [ng·h/mL] | Cmax [1, 4] [ng/mL] | Tmax [1, 4] [min] | CL/F [1, 4] [mL/min/kg] | MRT last [1, 4] [h] | MRT inf [1, 4] [h] | half-life [1, 4] [min] | Vd/F [1, 4] [L/kg] | AUC(0-inf) [1, 5] [ng·h/mL] | AUC(0-t) [1, 5] [ng·h/mL] | also measured |
| --- | --- | --- | --- | --- | --- | --- | --- | --- | --- | --- | --- | --- | --- | --- | --- | --- | --- | --- | --- | --- | --- |
| C[C@]12CC[C@H](O)C[C@@]1(O)CC[C@@H]1[C@@H]2CC[C@]2(C)[C@@H](c3ccc(=O)oc3)[C@@H](O)[C@H]3O[C@]132 [DCT, desacetylcinobufotalin] | 13.4 ± 3.76 | 13 ± 3.69 | 6.94 ± 5.35 | 52.2 ± 37.8 | 66 | 2.53 ± 0.99 | 2.95 ± 1.78 | 49.8 ± 15 | 5.16 ± 2.57 | 35.7 ± 12.1 | 34.2 ± 10.4 | 12.3 ± 3.11 | 36.6 ± 19.2 | 50.3 | 2.68 ± 0.88 | 3.1 ± 0.92 | 118 ± 81.6 | 8.27 ± 5.18 | 62.7 ± 16.8 | 61.2 ± 16.1 | Cmax [1, 5]: 22.2 ± 5.19 ng/mL; Tmax [1, 5]: 23.4 ± 12 min; CL/F [1, 5]: 42.5 mL/min/kg; MRT last [1, 5]: 2.28 ± 0.37 h; MRT inf [1, 5]: 2.53 ± 0.58 h; half-life [1, 5]: 91.8 ± 49.2 min; Vd/F [1, 5]: 5.59 ± 3.29 L/kg; Stability during 24 h at 4°C, RE [2, 6]: 9.6%; Stability during 24 h at 4°C, RE ([2]; low QC level (4.99–5.00 ng/ml)): 11.4%; Stability during 24 h at 4°C, RE [2, 7]: 7.3%; −80°C for 30 days, RE [2, 6]: 8.7%; −80°C for 30 days, RE ([2]; low QC level (4.99–5.00 ng/ml)): 2.4%; −80°C for 30 days, RE [2, 7]: 12.7%; Three freeze–thaw cycles, RE [2, 6]: 7.3%; Three freeze–thaw cycles, RE ([2]; low QC level (4.99–5.00 ng/ml)): 3.7%; Three freeze–thaw cycles, RE [2, 7]: 12.1% |
| C[C@]12CC[C@H](O)C[C@H]1CC[C@@H]1[C@@H]2CC[C@]2(C)[C@@H](c3ccc(=O)oc3)[C@@H](O)[C@H]3O[C@]132 [DCG, desacetylcinobufagin] | 67 ± 15.3 | 61.7 ± 7.8 | 17.2 ± 4.77 | 49.8 ± 12 | 13 | 3.95 ± 0.73 | 4.74 ± 1.56 | 73.2 ± 48.6 | 2.8 ± 1.71 | 112 ± 14.9 | 100 ± 12.4 | 35.6 ± 2.59 | 53.4 ± 7.8 | 12 | 3 ± 0.63 | 4.86 ± 0.46 | 286 ± 31.2 | 5.62 ± 0.68 | 150 ± 30 | 148 ± 30.2 | Cmax [1, 5]: 56.6 ± 7.79 ng/mL; Tmax [1, 5]: 49.2 ± 7.2 min; CL/F [1, 5]: 17.2 mL/min/kg; MRT last [1, 5]: 2.44 ± 0.41 h; MRT inf [1, 5]: 2.65 ± 0.44 h; half-life [1, 5]: 125 ± 36 min; Vd/F [1, 5]: 2.79 ± 1.51 L/kg; time to reach maximum plasma concentration (Cmax) ([1]; rats, after gavage administration of cinobufacini capsule): ≤ 60 min; Stability during 24 h at 4°C, RE [2, 6]: 4.6%; Stability during 24 h at 4°C, RE ([2]; low QC level (4.99–5.00 ng/ml)): 1.5%; Stability during 24 h at 4°C, RE [2, 7]: 6.7%; −80°C for 30 days, RE [2, 6]: −3.8%; −80°C for 30 days, RE ([2]; low QC level (4.99–5.00 ng/ml)): 1.9%; −80°C for 30 days, RE [2, 7]: 3.8%; Three freeze–thaw cycles, RE [2, 6]: −2.8%; Three freeze–thaw cycles, RE ([2]; low QC level (4.99–5.00 ng/ml)): 3.0%; Three freeze–thaw cycles, RE [2, 7]: 4.9% |
| C[C@]12CC[C@H]3[C@@H](CC[C@]4(O)C[C@@H](O)CC[C@]34C=O)[C@@]1(O)CC[C@@H]2c1ccc(=O)oc1 [HBG, hellebrigenin] | 4.21 ± 2.23 | 3.97 ± 1.73 | 2.47 ± 1.38 | 56.4 ± 45 | 237 | 3.59 ± 1.63 | 3.81 ± 1.99 | 61.2 ± 36 | 14.2 ± 3.88 | 13.8 ± 5.4 | 13.7 ± 4.3 | 8.36 ± 2.92 | 40.8 ± 21 | 110 | 2.28 ± 1.26 | 2.55 ± 1.53 | 80.4 ± 65.4 | 11.1 ± 5.04 | 31.1 ± 11.4 | 31.1 ± 11.4 | Cmax [1, 5]: 18.2 ± 5.84 ng/mL; Tmax [1, 5]: 23.4 ± 12 min; CL/F [1, 5]: 118 mL/min/kg; MRT last [1, 5]: 2.14 ± 0.83 h; MRT inf [1, 5]: 2.14 ± 0.82 h; half-life [1, 5]: 37.8 ± 6 min; Vd/F [1, 5]: 6.35 ± 2.55 L/kg; Stability during 24 h at 4°C, RE [2, 6]: 0.8%; Stability during 24 h at 4°C, RE ([2]; low QC level (4.99–5.00 ng/ml)): 10.2%; Stability during 24 h at 4°C, RE [2, 7]: −4.7%; −80°C for 30 days, RE [2, 6]: −1.3%; −80°C for 30 days, RE ([2]; low QC level (4.99–5.00 ng/ml)): −5.0%; −80°C for 30 days, RE [2, 7]: 8.9%; Three freeze–thaw cycles, RE [2, 6]: 1.5%; Three freeze–thaw cycles, RE ([2]; low QC level (4.99–5.00 ng/ml)): 9.3%; Three freeze–thaw cycles, RE [2, 7]: −2.1% |
